Source: patent US9163027B2, “Substituted triazolo-pyrimidine compounds for modulating cell proliferation differentiation and survival” (STATegics, Inc., priority 2012, dated 2015)

System: PC12 cells
Assay: PC12 cell survival under serum deprivation (CellTiter-Glo)
Assay type: cell-based, rat
Conditions: 72 h serum-free, NS = RLU increased <25% at 5 uM; for minimal effective concentration: Rattus norvegicus, PC-12, read-out: PC12 cell proliferation (CellTiter-Glo ®) Concentration at which RLU increased >25% compared to medium control
Procedure: Each culture condition was performed in quadruplicate in each experiment and the mean values were calculated. The results represent mean±SEM of relative light unit values when compared to the mean values obtained in the presence of the medium alone. A total of 13 experiments were performed and the statistical significance was analyzed using GraphPad Prism software using ANOVA, followed by paired t-test. The symbol * indicates P-values <0.01.
PC12 cells were cultured in DMEM supplemented with 10% fetal calf serum and 5% horse serum. […] Cell viability was analyzed by CellTiter-Glo® reagent (Promega).
PC12 cells were cultured in DMEM supplemented with 10% fetal calf serum and 5% horse serum. […] Cell survival of the serum-starved cells was analyzed by CellTiter-Glo® reagent luminescence reading.
FIG. 2 illustrates neuroprotective effects of Compounds 1-5 when tested in PC12 cell protection assays. PC12 cells were subjected to serum deprivation as described under FIG. 1.
PC12 cells were cultured in DMEM supplemented with 10% fetal calf serum and 5% horse serum. […] Cell survival of the serum-starved cells was analyzed by CellTiter-Glo® reagent luminescence reading (relative light units, “RLU”). […] “NS” indicates RLU increased <25% when compounds were tested at 5 uM.

SMILES	minimal effective concentration [µM]	PC12 cell proliferation (CellTiter-Glo ®) Concentration at which RLU increased >25% compared to medium control
Cc1cc(C)n2nc(SCCOc3ccccc3)nc2n1 [Example 2, 5,7-dimethyl-2-[(2-phenoxyethyl)sulfanyl]-[1,2,4]-triazolo[1,5-a]pyrimidine]	< 5	
Cc1cc(C)n2nc(SCCOc3ccc(F)cc3)nc2n1 [Example 3, 2-{[2-(4-fluorophenoxy)ethyl]sulfanyl}-5,7-dimethyl-[1,2,4]triazolo[1,5-a]pyrimidine]	< 5	
Cc1cc(C)n2nc(SCCOc3ccc(Cl)c(F)c3)nc2n1 [Example 4, 2-{[2-(4-chloro-3-fluorophenoxy)ethyl]sulfanyl}-5,7-dimethyl-[1,2,4]triazolo[1,5-a]pyrimidine]	< 5	
Cc1cc(C)n2nc(SCCOc3ccc(Cl)c(Cl)c3)nc2n1 [Example 5, 2-{[2-(3,4-dichlorophenoxy)ethyl]sulfanyl}-5,7-dimethyl-[1,2,4]-triazolo[1,5-a]pyrimidine]	< 5	
Cc1cc(C)n2nc(SCCOc3ccc(F)c(Cl)c3)nc2n1 [Example 6]		<5 µM
Cc1cc(C)n2nc(SCCOc3ccc(F)c(F)c3)nc2n1 [Example 7, 2-{[2-(3,4-difluorophenoxy)ethyl]sulfanyl}-5,7-dimethyl-[1,2,4]triazolo[1,5-a]pyrimidine]	< 5	
CCc1ccc(OCCSc2nc3nc(C)cc(C)n3n2)cc1 [Example 8, 2-{[2-(4-ethylphenoxy)ethyl]sulfanyl}-5,7-dimethyl-[1,2,4]triazolo[1,5-a]pyrimidine]	< 5	
Cc1cc(C)n2nc(SCCN(CCO)c3ccccc3)nc2n1 [Example 9, 2-{[2-({5,7-Dimethyl-[1,2,4]triazolo[1,5-a]pyrimidin-2-yl}sulfanyl)ethyl](phenyl)amino}ethan-1-ol]	< 5	
Cc1cc(C)n2nc(OCCCC3CCCC3)nc2n1 [Example 12, 2-(3-cyclopentylpropoxy)-5,7-dimethyl-[1,2,4]-triazolo[1,5-a]pyrimidine]	< 5	
CCc1cc(CC)n2nc(OCCN(CCO)c3ccc(F)cc3)nc2n1 [Example 14, 2-{[2-({5,7-diethyl-[1,2,4]triazolo[1,5-a]pyrimidin-2-yl}oxy)ethyl](4-fluorophenyl)amino}ethan-1-ol]	< 5	
CCc1cc(CC)n2nc(OCCOc3ccc(F)cc3)nc2n1 [Example 15, 5,7-diethyl-2-[2-(4-fluorophenoxy)ethoxy]-[1,2,4]triazolo[1,5-a]pyrimidine]	< 5	
CCc1cc(CC)n2nc(OCCOc3ccc(Cl)cc3)nc2n1 [Example 16, 5,7-diethyl-2-[-2-(4-chlorophenoxy)ethoxy]-[1,2,4]triazolo[1,5-a]pyrimidine]	< 5	
CCc1cc(CC)n2nc(OCCN(CCO)c3ccccc3)nc2n1 [Example 17, 2-{[2-({5,7-Diethyl-[1,2,4]triazolo[1,5-a]pyrimidin-2-yl}oxy)ethyl](phenyl)amino}ethan-1-ol]	< 5	
CCc1cc(CC)n2nc(NCCOc3ccccc3)nc2n1 [Example 18, 5,7-diethyl-N-(2-phenoxyethyl)-[1,2,4]triazolo[1,5-a]pyrimidin-2-amine]	< 5	
Cc1cc(C)n2nc(NCCOc3ccc(Cl)cc3)nc2n1 [Example 19, N-[2-(4-chlorophenoxy)ethyl]-5,7-dimethyl-[1,2,4]triazolo[1,5-a]pyrimidin-2-amine]	< 5	
CCc1cc(CC)n2nc(CCCN(CCO)c3ccc(F)cc3)nc2n1 [Example 20, 2-[(3-{5,7-diethyl-[1,2,4]triazolo[1,5-a]pyrimidin-2-yl}propyl)(4-fluorophenyl)amino]ethan-1-ol]	< 5	
CCc1cc(CC)n2nc(CCCN(CCOC(C)=O)c3ccc(F)cc3)nc2n1 [Example 21, 2-[(3-{5,7-diethyl-[1,2,4]triazolo[1,5-a]pyrimidin-2-yl}propyl)(4-fluorophenyl)amino]ethyl acetate]	< 5	
Cc1cc(C(F)(F)F)n2nc(CCCOc3ccc(Cl)cc3)nc2n1 [Example 22, 2-[3-(4-chlorophenoxy)propyl]-5-methyl-7-(trifluoromethyl)-[1,2,4]triazolo[1,5-a]pyrimidine]	< 5	
Cc1cc(C(F)(F)F)n2nc(SCCOc3ccc(Cl)cc3)nc2n1 [Example 23, 2-{[2-(4-chlorophenoxy)ethyl]sulfanyl}-5-methyl-7-(trifluoromethyl)-[1,2,4]-triazolo[1,5-a]pyrimidine]	< 5	
FC(F)(F)c1cc(C(F)(F)F)n2nc(SCCOc3ccc(Cl)cc3)nc2n1 [Example 24, 2-{[2-(4-chlorophenoxy)ethyl]sulfanyl}-5,7-bis(trifluoromethyl)-[1,2,4]-triazolo[1,5-a]pyrimidine]	< 5	
Clc1ccc(OCCSc2nc3ncccn3n2)cc1 [Example 25, 2-{[2-(4-chlorophenoxy)ethyl]sulfanyl}-[1,2,4]-triazolo[1,5-a]pyrimidine]	< 5	
Cc1ccn2nc(SCCOc3ccc(Cl)cc3)nc2n1 [Example 26, 2-{[2-(4-chlorophenoxy)ethyl]sulfanyl}-5-methyl-[1,2,4]triazolo[1,5-a]pyrimidine]	< 5	
Cc1ccnc2nc(SCCOc3ccc(Cl)cc3)nn12 [Example 27, 2-{[2-(4-chlorophenoxy)ethyl]sulfanyl}-7-methyl-[1,2,4]-triazolo[1,5-a]pyrimidine]	< 5	
CC(C)c1cc(C(C)C)n2nc(CCCOc3ccc(F)cc3)nc2n1 [Example 29, 2-[3-(4-fluorophenoxy)propyl]-5,7-bis(propan-2-yl)-[1,2,4]triazolo[1,5-a]pyrimidine]	< 5	
Fc1ccc(OCCCc2nc3nc(C(F)F)cc(C(F)F)n3n2)cc1 [Example 30, 5,7-bis(difluoromethyl)-2-[3-(4-fluorophenoxy)propyl]-[1,2,4]triazolo[1,5-a]pyrimidine]	< 5	
Cc1cc(C)n2nc(SCCOc3ccncc3)nc2n1 [Example 31, 4-[2-({5,7-dimethyl-[1,2,4]triazolo[1,5-a]pyrimidin-2-yl}sulfanyl)ethoxy]pyridine]		NS (RLU increased <25% when compounds were tested at 5 uM)
Cc1cc(C)n2nc(SCCOc3ccc(CCN(C)C)cc3)nc2n1 [Example 32, (2-{4-[2-({5,7-dimethyl-[1,2,4]triazolo[1,5-a]pyrimidin-2-yl}sulfanyl)ethoxy]phenyl}ethyl)-dimethylamine]		NS (RLU increased <25% when compounds were tested at 5 uM)
Cc1cc(C)n2nc(SCCOC3CCCCC3)nc2n1 [Example 33, 2-{[2-(cyclohexyloxy)ethyl]sulfanyl}-5,7-dimethyl-[1,2,4]triazolo[1,5-a]pyrimidine]		NS (RLU increased <25% when compounds were tested at 5 uM)
Cc1cc(C)n2nc(SCCc3c[nH]c4ccccc34)nc2n1 [Example 34, 3-[2-({5,7-dimethyl-[1,2,4]triazolo[1,5-a]pyrimidin-2-yl}sulfanyl)ethyl]-1H-indole]	< 5	
Cc1cc(C)n2nc(OCCSc3ccc(Cl)cc3)nc2n1 [Example 35, 2-{2-[(4-chlorophenyl)sulfanyl]ethoxy}-5,7-dimethyl-[1,2,4]triazolo[1,5-a]pyrimidine]	< 5	
